molecular target: T1, human fascin 1 (Homo sapiens, UniProt Q16658); experiment: Fascin inhibition (actin bundling) assay, image-based; type: biochemical; settings: in the presence of 50 μm of the compound relative to bundle activity when the compound was not present; read-out: Inhibition (percentage reduction of bundle activity)
T1 construct: GST (N, cleaved yes); made in house; host or cells: Escherichia coli BL21/DE3 (pGEX4T-fascin 1 plasmid)
Experimental: Recombinant human fascin 1 was expressed as a GST fusion protein in BL21 Escherichia coli. One liter of 2YT medium with ampicillin was inoculated overnight with 3 mL of BL21/DE3 culture transformed with pGEX4T-fascin 1 plasmid and grown at 37° C. until attenuance at 600 nm (D600) reached about 0.8. The culture was then transferred to 18° C. and induced by the addition of 0.1 mM isopropyl β-d-thiogalactoside (IPTG) for 12 h. Bacteria were harvested by centrifugation at 5,000 r.p.m. for 10 min. The pellets were suspended in 30 mL of PBS supplemented with 0.2 mM PMSF, 1 mM DTT, 1% (v/v) Triton X-100 and 1 mM EDTA. After sonication, the suspension was centrifuged at 15,000 r.p.m. for 30 min to remove the cell debris. The supernatant was then incubated for 2 h with 4 mL of glutathione beads (Sigma) at 4° C. After extensive washing with PBS, the beads were resuspended in 10 mL of thrombin cleavage buffer (20 mM Tris-HCl pH 8.0, 150 mM NaCl, 2 mM CaCl2, 1 mM DTT). Fascin was released from the beads by incubation overnight with 40-100 U of thrombin at 4° C. After centrifugation, 0.2 mM PMSF was added to the supernatant to inactivate the remnant thrombin activity. The fascin protein was further concentrated with a Centricon® (Boca Raton, Fla.) filter to about 50 mg/mL.
Representative compounds described herein were tested for fascin inhibition activity. Purified fascin protein (15 μL of 0.5 μM) in buffer (100 mM KCl, 20 mM Tris/HCl, pH 7.5, 2 mM MgCl2) was added into each well of a clear 384-well flat-bottom plate (Corning) using Thermo Multidrop Combi (Fisher). Compound solutions (5 mM stock, 180 nL) were pin transferred from stock 384-well plates into the 384-well assay plates and incubated for 30 min. Then 15 μL of 0.5 μM polymerized actin (in 100 mM KCl, 20 mM Tris/HCl, pH 7.5, 2 mM MgCl2, 1 mM DTT, 1 mM ATP) (Cytoskeleton Inc.) was added, resulting in 30 μM final concentration for chemical compounds. […] Mixed solution (25 μL) was then transferred to one well in a black 384-well plate coated with poly-D-lysine, and stained actin bundles or F-actin would stick onto the poly-D-lysine plates. After the plates were thoroughly washed with 1×PBS for 3 times, the plate was imaged using an ImageXpress Micro High Content Screening System (Molecular devices). The images were processed and analyzed using MetaMorph software. The raw image data for each well was background-corrected by subtraction of the median intensities across all wells on the plate. The background-corrected data was used to compute the bundle length for each well. The negative control wells were employed for quality control: multiple DMSO-only control wells (16 wells/plate) were present on each assay plate.

Compound | inhibition at 50 µM [%]
Cc1nocc1C(=O)Nc1nn(Cc2ccc(C(F)(F)F)cc2)c2cccc(Cl)c12 [Compound 118, N-(4-chloro-1-(4-(trifluoromethyl)benzyl)-1H-indazol-3-yl)-3-methylisoxazole-4-carboxamide] | < 10
O=C(Nc1nn(Cc2ccc(C(F)(F)F)cc2)c2ccccc12)c1ccccc1C(F)(F)F [Compound 50, 2-(trifluoromethyl)-N-(1-(4-(trifluoromethyl)benzyl)-1H-indazol-3-yl)benzamide] | < 10
O=C(Nc1nn(Cc2ccc(C(F)(F)F)cc2)c2ccccc12)c1cccs1 [Compound 9, N-(1-(4-(trifluoromethyl)benzyl)-1H-indazol-3-yl)thiophene-2-carboxamide] | 60
Nc1nn(Cc2ccc(F)cc2)c2ccccc12 [Compound 70, 1-(4-fluorobenzyl)-1H-indazol-3-amine] | < 10
Cc1ccc(Cn2nc(N)c3ccccc32)cc1 [Compound 77, 1-(4-methylbenzyl)-1H-indazol-3-amine] | < 10
Cc1ccc(-c2ccc(C(=O)Nc3nn(Cc4ccc(C(F)(F)F)cc4)c4ccccc34)o2)cc1 [Compound 3, 5-(p-tolyl)-N-(1-(4-(trifluoromethyl)benzyl)-1H-indazol-3-yl)furan-2-carboxamide] | 10
O=C(Nc1nn(Cc2ccc(C(F)(F)F)cc2)c2cccc(Cl)c12)c1ccoc1 [Compound 117, N-(4-chloro-1-(4-(trifluoromethyl)benzyl)-1H-indazol-3-yl)furan-3-carboxamide] | < 10
Cc1ncsc1C(=O)Nc1nn(Cc2ccc(C(F)(F)F)cc2)c2cncc(Cl)c12 [Compound 138, N-(4-chloro-1-(4-(trifluoromethyl)benzyl)-1H-pyrazolo[3,4-c]pyridin-3-yl)-4-methylthiazole-5-carboxamide] | 90
Nc1nn(Cc2ccc(Cl)cc2)c2ccccc12 [Compound 63, 1-(4-chlorobenzyl)-1H-indazol-3-amine] | < 10
Cc1nocc1C(=O)Nc1nn(Cc2ccc(C(F)(F)F)cc2)c2cncc(Cl)c12 [Compound 142, N-(4-chloro-1-(4-(trifluoromethyl)benzyl)-1H-pyrazolo[3,4-c]pyridin-3-yl)-3-methylisoxazole-4-carboxamide] | 10
O=C(Nc1nn(Cc2ccc(C(F)(F)F)cc2)c2ccccc12)c1cccc(F)c1F [Compound 20, 2,3-difluoro-N-(1-(4-(trifluoromethyl)benzyl)-1H-indazol-3-yl)benzamide] | < 10
Cc1nocc1C(=O)Nc1nn(Cc2ccc(C(F)(F)F)cc2)c2ccc(C(F)(F)F)cc12 [Compound 124, 3-methyl-N-(5-(trifluoromethyl)-1-(4-(trifluoromethyl)benzyl)-1H-indazol-3-yl)isoxazole-4-carboxamide] | < 10
Cc1ncsc1C(=O)Nc1nn(Cc2ccc(C(F)(F)F)nc2)c2ccc(C#N)cc12 [Compound 101, N-(5-cyano-1-((6-(trifluoromethyl)pyridin-3-yl)methyl)-1H-indazol-3-yl)-4-methylthiazole-5-carboxamide] | < 10
Cc1ccc2c(NC(=O)c3ccoc3C)nn(Cc3ccc(C(F)(F)F)cc3)c2n1 [Compound 134, 2-methyl-N-(6-methyl-1-(4-(trifluoromethyl)benzyl)-1H-pyrazolo[3,4-b]pyridin-3-yl)furan-3-carboxamide] | < 10
O=C(Nc1n[nH]c2ccccc12)c1ccoc1 [Compound 62, N-(1H-indazol-3-yl)furan-3 carboxamide] | < 10
O=C(Nc1nn(Cc2ccc(C(F)(F)F)cc2)c2ccccc12)c1cccnc1 [Compound 54, N-(1-(4-(trifluoromethyl)benzyl)-1H-indazol-3-yl)nicotinamide] | < 10
N#Cc1ccc2c(c1)c(N)nn2Cc1ccc(C(F)(F)F)nc1 [Compound 97, 3-amino-1-((6-(trifluoromethyl)pyridin-3-yl)methyl)-1H-indazole-5-carbonitrile] | < 10
Cc1ccc(-c2nn(Cc3ccc(C(F)(F)F)cc3)c3ccccc23)o1 [Compound 146, 3-(5-methylfuran-2-yl)-1-(4-(trifluoromethyl)benzyl)-1H-indazole] | 10
O=C(Nc1nn(Cc2ccc(C(F)(F)F)cc2)c2ccccc12)c1cncnc1 [Compound 56, N-(1-(4-(trifluoromethyl)benzyl)-1H-indazol-3-yl)pyrimidine-5-carboxamide] | 90
O=C(Nc1nn(Cc2ccc(Cl)cc2)c2ccccc12)c1cccnn1 [Compound 69, N-(1-(4-chlorobenzyl)-1H-indazol-3-yl)pyridazine-3-carboxamide] | 50
O=C(Nc1nn(Cc2ccc(CO)cc2)c2ccccc12)c1ccoc1 [Compound 104, N-(1-(4-(hydroxymethyl)benzyl)-1H-indazol-3-yl)furan-3-carboxamide] | < 10

Second part, the compound after the results:

inhibition at 50 µM [%] | Compound
< 10 | O=C(Nc1nn(Cc2ccc(F)cc2)c2ccccc12)c1cccnn1 [Compound 76, N-(1-(4-fluorobenzyl)-1H-indazol-3-yl)pyridazine-3-carboxamide]
< 10 | O=C(Nc1nn(Cc2ccc(C(F)(F)F)cc2)c2ccc(C(F)(F)F)cc12)c1ccoc1 [Compound 123, N-(5-(trifluoromethyl)-1-(4-(trifluoromethyl)benzyl)-1H-indazol-3-yl)furan-3-carboxamide]
< 10 | Cc1ncsc1C(=O)Nc1nn(Cc2ccc(C(F)(F)F)nc2)c2ccccc12 [Compound 95, 4-methyl-N-(1-((6-(trifluoromethyl)pyridin-3-yl)methyl)-1H-indazol-3-yl)thiazole-5-carboxamide]
< 10 | Cc1ncsc1C(=O)Nc1nn(Cc2ccc(C(F)(F)F)cc2)c2cccc(Cl)c12 [Compound 120, N-(4-chloro-1-(4-(trifluoromethyl)benzyl)-1H-indazol-3-yl)-4-methylthiazole-5-carboxamide]
< 10 | Nc1nn(Cc2ccc(C(F)(F)F)cc2)c2cccc(Cl)c12 [Compound 116, 4-chloro-1-(4-(trifluoromethyl)benzyl)-1H-indazol-3-amine]
< 10 | Cc1ccc(Cn2nc(NC(=O)c3conc3C)c3ccccc32)cc1 [Compound 79, 3-methyl-N-(1-(4-methylbenzyl)-1H-indazol-3-yl)isoxazole-4-carboxamide]
< 10 | Nc1nn(Cc2ccc(C(F)(F)F)cc2)c2ccccc12 [Compound 59, 1-(4-(trifluoromethyl)benzyl)-1H-indazol-3-amine]
< 10 | Cc1occc1C(=O)Nc1nn(Cc2ccc(C(F)(F)F)nc2)c2ccccc12 [Compound 94, 2-methyl-N-(1-((6-(trifluoromethyl)pyridin-3-yl)methyl)-1H-indazol-3-yl)furan-3-carboxamide]
< 10 | O=C(Nc1nn(Cc2ccc(C(F)(F)F)cc2)c2ccccc12)c1cccc(Cl)n1 [Compound 8, 6-chloro-N-(1-(4-(trifluoromethyl)benzyl)-1H-indazol-3-yl)picolinamide]
10 | Cc1occc1C(=O)Nc1nn(Cc2ccc(C(F)(F)F)cc2)c2cncc(Cl)c12 [Compound 141, N-(4-chloro-1-(4-(trifluoromethyl)benzyl)-1H-pyrazolo[3,4-c]pyridin-3-yl)-2-methylfuran-3-carboxamide]
